The values below come from ChEMBL document CHEMBL4359901, “Cyclic enaminone as new chemotype for selective cyclooxygenase-2 inhibitory, anti-inflammatory, and analgesic activities” (Eur J Med Chem, 2019).

Bounds are passed on as bounds.

Test [1] has as its target Prostaglandin G/H synthase 1 (Ovis aries) (UniProt P05979). Put plainly: Inhibition of ovine COX1 assessed as reduction in PGF2alpha at 10 uM incubated for 2 mins using arachidonic acid as substrate by ELISA relative to control.
Test [2] concerns the target Prostaglandin G/H synthase 2 (Homo sapiens) (UniProt P35354). Put plainly: Inhibition of recombinant human COX2 assessed as reduction in PGF2alpha at 10 uM incubated for 2 mins using arachidonic acid as substrate by ELISA relative to control.
Test [3] in a line: Selectivity index, ratio of IC50 for inhibition of ovine COX1 to IC50 for inhibition of recombinant human COX2.
The nature of test [4]: Antioxidant activity assessed as DPPH radical scavenging activity at 100 uM/ml incubated for 20 mins by spectrophotometric method relative to control. The test is classed as functional.
Test [5] concerns Rattus norvegicus. The test can be described thus: Analgesic activity in Wistar albino rat assessed as reaction time at 12.5 mg/kg, ip measured after 180 mins for 15 secs by hot plate method (reference value: 3.87 +/- 0.38 sec). The test is classed as functional.
Test [6] relates to Rattus norvegicus. The test can be described thus: Antiinflammatory activity in Wistar albino rat assessed as reduction in carrageenan-induced paw edema at 25 mg/kg, ip measured after 3 hrs by plethysmometric method (reference value: 1.75 +/- 0.33 ml). The test is classed as functional.
Test [7] is described as follows: Antioxidant activity assessed as DPPH radical scavenging activity incubated for 20 mins by spectrophotometric method. The test is classed as functional.
Test [8] concerns Rattus norvegicus. The test can be described thus: Antiinflammatory activity in Wistar albino rat assessed as reduction in carrageenan-induced paw volume at 12.5 mg/kg, ip measured after 2 hrs by plethysmometric method (reference value: 1.58 +/- 0.21 ml). The test is classed as functional.
The test system of test [9] is Rattus norvegicus. The test can be described thus: Analgesic activity in Wistar albino rat assessed as reaction time at 12.5 mg/kg, ip measured after 30 mins for 15 secs by hot plate method (reference value: 4.21 +/- 0.41 sec). The test is classed as functional.
For test [10], the system named is Rattus norvegicus. The test can be described thus: Antiinflammatory activity in Wistar albino rat assessed as reduction in carrageenan-induced paw edema at 25 mg/kg, ip measured after 1 hr by plethysmometric method (reference value: 1.43 +/- 0.19 ml). The class given is functional.
Test [11] is described as follows: Antioxidant activity assessed as DPPH radical scavenging activity at 40 uM/ml incubated for 20 mins by spectrophotometric method relative to control. The class given is functional.
Test [12] deals with Rattus norvegicus. Put plainly: Antiinflammatory activity in Wistar albino rat assessed as reduction in carrageenan-induced paw volume at 12.5 mg/kg, ip measured after 3 hrs by plethysmometric method (reference value: 1.75 +/- 0.33 ml). The class given is functional.
The test system of test [13] is Rattus norvegicus. The test can be described thus: Antiinflammatory activity in Wistar albino rat assessed as reduction in carrageenan-induced paw volume at 12.5 mg/kg, ip measured after 1 hr by plethysmometric method (reference value: 1.43 +/- 0.19 ml). The test is classed as functional.
Test [14] deals with Rattus norvegicus. Put plainly: Analgesic activity in Wistar albino rat assessed as reaction time at 25 mg/kg, ip measured after 30 mins for 15 secs by hot plate method (reference value: 4.21 +/- 0.41 sec). The class given is functional.
Test [15] concerns Rattus norvegicus. Put plainly: Analgesic activity in Wistar albino rat assessed as reaction time at 25 mg/kg, ip measured after 180 mins for 15 secs by hot plate method (reference value: 3.87 +/- 0.38 sec). The test is classed as functional.
Test [16] has as its system Rattus norvegicus. Put plainly: Analgesic activity in Wistar albino rat assessed as reaction time at 12.5 mg/kg, ip measured after 60 mins for 15 secs by hot plate method (reference value: 4.67 +/- 0.52 sec). The test is classed as functional.
The subject of test [17] is Rattus norvegicus. The test can be described thus: Analgesic activity in Wistar albino rat assessed as reaction time at 12.5 mg/kg, ip measured after 120 mins for 15 secs by hot plate method (reference value: 4.32 +/- 0.52 sec). The class given is functional.
Test [18] in a line: Antioxidant activity assessed as DPPH radical scavenging activity at 10 uM/ml incubated for 20 mins by spectrophotometric method relative to control. The test is classed as functional.
The nature of test [19]: Antioxidant activity assessed as DPPH radical scavenging activity at 20 uM/ml incubated for 20 mins by spectrophotometric method relative to control. The class given is functional.
The test system of test [20] is Rattus norvegicus. Put plainly: Antiinflammatory activity in Wistar albino rat assessed as reduction in carrageenan-induced paw edema at 25 mg/kg, ip measured after 2 hrs by plethysmometric method (reference value: 1.58 +/- 0.21 ml). The test is classed as functional.
Test [21] concerns Rattus norvegicus. The test can be described thus: Analgesic activity in Wistar albino rat assessed as reaction time at 25 mg/kg, ip measured after 60 mins for 15 secs by hot plate method (reference value: 4.67 +/- 0.52 sec). The class given is functional.
For test [22], the system named is Rattus norvegicus. The test can be described thus: Analgesic activity in Wistar albino rat assessed as reaction time at 25 mg/kg, ip measured after 120 mins for 15 secs by hot plate method (reference value: 4.32 +/- 0.52 sec). The class given is functional.
The nature of test [23]: Antioxidant activity assessed as DPPH radical scavenging activity at 60 uM/ml incubated for 20 mins by spectrophotometric method relative to control. The class given is functional.
A short description of test [24]: Antioxidant activity assessed as DPPH radical scavenging activity at 80 uM/ml incubated for 20 mins by spectrophotometric method relative to control. The class given is functional.

On to `O=C1C=C(Nc2ccc(Cl)cc2)CC1`, for which the inhibition in test [1] was found to be 23.7%; in [2], 33.5%.
For the compound `O=C1C=C(Nc2cc(Cl)ccc2F)CCC1`, the values for the inhibition in [1] and in test [2] were 32% and 47.4%, respectively.
With `O=C1C=C(NCc2ccco2)CC1`, the inhibition in [1] turned out to be 30.5%; in test [2], 41.4%.
Take `CC(C)(C)OC(=O)N(C1=CC(=O)CCC1)c1ccc(Cl)cc1`: the Ratio IC50 in test [3] was 19.4. The Activity in test [4] stood at 89.1%; in test [6], 1.19 mL; in test [8], 1.28 mL; in [10], 1.3 mL; in test [11], 49.6%; in test [12] it was 1.18 mL. For the same compound, the Activity in test [13] is 1.24 mL; in test [18] it was 23.1%; in [19] it was 36.5%; in [20], 1.24 mL; in [23], 63%; in test [24] it was 77.2%. Further, the Time in [5] is on record as 7.95 s; in test [9], 5.59 s; in [14], 6.53 s; in [15], 7.85 s; in test [16], 6.29 s; in test [17], 7.99 s. Besides, the Time in test [21] is listed as 6.87 s; in [22] it was 9.98 s. The IC50 in [7] amounted to 42.6 µM. Further, the inhibition was determined as 30.5% in test [1] and 73.5% in [2].
As for `O=C1C=C(Nc2ccc(Cl)cc2)CCC1`, in test [3], the Ratio IC50 was 74.1. Besides, the Activity in test [4] came out at 78.2%; in [6] it was 1.19 mL; in test [8], 1.22 mL; in test [10], 1.29 mL; in test [11] it was 33.7%; in [12], 1.23 mL. The Activity in test [13] turned out to be 1.23 mL; in test [18], 12.7%; in [19], 24%; in [20], 1.24 mL; in test [23] it was 46.7%; in test [24], 61.3%. For the same compound, the Time is on record as 7.24 s in test [5]; 5.34 s in test [9]; 5.48 s in test [14]; 8.2 s in [15]; 7.09 s in test [16]; 7.16 s in [17]. For the same compound, the figures for the Time in test [21] and in test [22] were 7.72 s and 8.83 s, respectively. Moreover, the IC50 in test [7] turned out to be 71.2 µM. For the same compound, the figures for the inhibition in test [1] and in test [2] were 12.9% and 88.6%, respectively.
In the case of `O=C1C=C(Nc2ccccc2)CCC1`, the inhibition worked out at 19.7% in [1] and 41.9% in test [2].
`CC1(C)CC(=O)C=C(Nc2ccc(Cl)cc2)C1`: the inhibition in test [1] was found to be 16.4%; in test [2], 42.6%.
As to `O=C1C=C(Nc2ccc([N+](=O)[O-])cc2)CCC1`, the inhibition in test [1] was determined as 31%; in test [2], 24.2%.
Turning to `O=C1C=C(Nc2ccc(F)cc2)CCC1`, the results for the inhibition in [1] and in test [2] were 14.3% and 55.6%, respectively.
For `O=C1C=C(N2CCCC2)CCC1`, the results for the inhibition in test [1] and in test [2] were 12.5% and 45.6%, respectively.
For `CSc1ccc(NC2=CC(=O)CCC2)cc1`, the inhibition in test [1] worked out at 12.8%; in test [2], 27.8%.
On to `COc1ccc(NC2=CC(=O)CCC2)cc1`, for which the results for the inhibition in test [1] and in test [2] were 10.7% and 36.6%, respectively.
Consider `O=C1O[C@H]([C@@H](O)CO)C(O)=C1O` [ASCORBIC ACID], for which the IC50 in test [7] was < 20 µM. For the same compound, the Activity in test [11] stood at 74.7%; in test [18] it was 27.1%; in test [19], 50.8%; in [23], 91.1%; in test [24], 100%.
Regarding `O=C1C=C(NCc2ccccc2)CCC1`, the results for the inhibition in test [1] and in test [2] were 24.2% and 40.5%, respectively.
Taken in the same sequence, the figures for `CC1(C)CC(=O)C=C(Nc2ccc(F)cc2)C1` were 34% and 44.5%.
As for `O=C1C=C(NN2CCCCC2)CCC1`, the inhibition in [1] is 11.3%; in [2], 43.2%.
Consider `CC1(C)CC(=O)C=C(NCc2ccco2)C1`, for which the figures for the inhibition in [1] and in [2] were 28.6% and 43.9%, respectively.
Taken in the same sequence, the figures for `O=C1C=C(NCc2ccco2)CCC1` were 27.2% and 48.4%.
For `Cc1ccc(NC2=CC(=O)CCC2)cc1`, the figures for the inhibition in test [1] and in test [2] were 11.2% and 34.2%, respectively.
`O=C1C=C(Nc2ccc(F)cc2)CC1`: the inhibition in test [1] came to 43.5%; in test [2], 22.2%.
For the compound `CC(=O)c1ccc(NC2=CC(=O)CCC2)cc1`, the figures for the inhibition in test [1] and in test [2] were 65.5% and 41.9%, respectively.
`O=C1C=C(Nc2nc3ccccc3s2)CCC1`: the inhibition stood at 5.14% in test [1] and 34% in test [2].
Regarding `N#Cc1ccc(NC2=CC(=O)CCC2)cc1`, the inhibition in test [1] is 46.5%; in [2], 47.1%.
